Data set [1] relates to Rattus norvegicus. The data set is described as follows: Toxicity in icv dosed Rattus norvegicus albino (rat) tus norvegicus Sprague-Dawley (rat) assessed as behavioral changes. It counts as organism-based. The settings on record: in vivo, icv_or_intrathecal.
Data set [2] relates to Rattus norvegicus. The data set is described as follows: Neurotoxicity in icv dosed Rattus norvegicus albino (rat) tus norvegicus Sprague-Dawley (rat) assessed as motor impairment. It counts as toxicity, organism-based. The note with it: in vivo, icv_or_intrathecal.
The subject of data set [3] is Rattus norvegicus. Briefly: Antinociceptive activity in icv dosed Rattus norvegicus albino (rat) tus norvegicus Sprague-Dawley (rat) assessed as increase in thermal-stimulus induced tail flick latency after 5 to 10 min. It counts as functional. The note with it: for Emax: Rattus norvegicus, Sprague-Dawley albino, Tail, central.
For data set [4], the system named is Rattus norvegicus. Briefly: Antinociceptive activity in icv dosed Rattus norvegicus albino (rat) tus norvegicus Sprague-Dawley (rat) assessed as maximal increase in paw withdrawal latency after 5 to 10 min by hot plate test. The note with it: for Emax: Rattus norvegicus, Sprague-Dawley albino, central. The data set is classed as functional. For orientation: Thermal pain tests record how soon the animal reacts.

Data set [5] deals with Histamine H3 receptor (Homo sapiens, UniProt Q9Y5N1). Briefly: Binding affinity to histamine H3 receptor (unknown origin).
Histamine H3 receptor (Homo sapiens, UniProt Q9Y5N1), sequence (Q9Y5N1 whole entry): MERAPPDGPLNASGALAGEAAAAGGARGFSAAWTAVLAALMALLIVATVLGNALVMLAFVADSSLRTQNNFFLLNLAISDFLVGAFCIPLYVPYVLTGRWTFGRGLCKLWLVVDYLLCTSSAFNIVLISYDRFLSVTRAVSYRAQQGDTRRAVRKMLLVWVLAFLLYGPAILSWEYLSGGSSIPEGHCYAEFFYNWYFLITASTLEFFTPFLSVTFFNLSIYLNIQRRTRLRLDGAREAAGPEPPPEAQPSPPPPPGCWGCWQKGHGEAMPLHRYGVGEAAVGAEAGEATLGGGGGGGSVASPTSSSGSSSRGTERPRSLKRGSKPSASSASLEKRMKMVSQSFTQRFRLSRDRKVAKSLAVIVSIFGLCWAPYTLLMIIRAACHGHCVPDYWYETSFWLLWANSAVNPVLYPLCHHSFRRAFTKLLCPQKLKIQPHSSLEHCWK
The target in a further data set is Histamine H2 receptor (Homo sapiens, UniProt P25021). The data set is described as follows: Binding affinity to histamine H2 receptor (unknown origin).
Histamine H2 receptor, sequence (P25021 whole entry): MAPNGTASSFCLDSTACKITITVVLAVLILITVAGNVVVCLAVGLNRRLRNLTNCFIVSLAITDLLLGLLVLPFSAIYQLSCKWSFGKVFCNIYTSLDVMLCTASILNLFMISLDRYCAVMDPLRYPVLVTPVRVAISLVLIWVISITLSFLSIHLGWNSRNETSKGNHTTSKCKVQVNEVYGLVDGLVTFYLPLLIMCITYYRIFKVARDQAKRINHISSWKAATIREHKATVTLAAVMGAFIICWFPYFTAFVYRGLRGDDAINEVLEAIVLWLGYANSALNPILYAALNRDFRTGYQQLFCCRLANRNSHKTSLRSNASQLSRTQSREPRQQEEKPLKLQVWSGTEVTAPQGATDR
The subject of data set [6] is Rattus norvegicus. Briefly: Antinociceptive activity in Rattus norvegicus albino (rat) tus norvegicus Sprague-Dawley (rat) assessed as increase in thermal-stimulus induced tail flick latency at 20 to 60 ug, icv after 30 to 60 min. It counts as functional, organism-based.
The test system of data set [7] is Rattus norvegicus. The data set is described as follows: Antinociceptive activity in Rattus norvegicus albino (rat) tus norvegicus Sprague-Dawley (rat) assessed as maximal increase in paw withdrawal latency at 20 to 60 ug, icv after 30 to 60 min by hot plate test. The data set is classed as functional, organism-based.
Data set [8] concerns Rattus norvegicus. Briefly: Toxicity in Rattus norvegicus albino (rat) tus norvegicus Sprague-Dawley (rat) assessed as behavioral changes at 20 to 60 ug, icv. The data set is classed as organism-based. The note with it: in vivo, icv_or_intrathecal.
For data set [9], the system named is Rattus norvegicus. Briefly: Antinociceptive activity in Rattus norvegicus albino (rat) tus norvegicus Sprague-Dawley (rat) assessed as increase in thermal-stimulus induced tail flick latency at 20 to 60 ug, icv. The settings on record: TDE = time-dependent effect. The data set is classed as functional, organism-based.
Data set [10] concerns Rattus norvegicus. The data set is described as follows: Neurotoxicity in Rattus norvegicus albino (rat) tus norvegicus Sprague-Dawley (rat) assessed as motor impairment at 20 to 60 ug, icv. It counts as toxicity, organism-based. The settings on record: in vivo, icv_or_intrathecal.
For data set [11], the system named is Rattus norvegicus. Briefly: Antinociceptive activity in Rattus norvegicus albino (rat) tus norvegicus Sprague-Dawley (rat) assessed as maximal increase in paw withdrawal latency at 20 to 60 ug, icv by hot plate test. It counts as functional, organism-based. The note with it: TDE = time-dependent effect.
The test system of data set [12] is Rattus norvegicus. The data set is described as follows: Antinociceptive activity in icv dosed Rattus norvegicus albino (rat) tus norvegicus Sprague-Dawley (rat) assessed as increase in thermal-stimulus induced tail flick latency. The data set is classed as functional, organism-based. The settings on record: TDE = time-dependent effect.
For data set [13], the system named is Rattus norvegicus. The data set is described as follows: Antinociceptive activity in icv dosed Rattus norvegicus albino (rat) tus norvegicus Sprague-Dawley (rat) assessed as maximal increase in paw withdrawal latency by hot plate test. The settings on record: TDE = time-dependent effect. It counts as functional, organism-based.
The target in data set [14] is Histamine H3 receptor (Cavia porcellus, UniProt Q9JI35). Briefly: Binding affinity to histamine H3 receptor in Cavia porcellus (guinea pig) ileum. The data set is classed as tissue-based.
Histamine H3 receptor (Cavia porcellus, UniProt Q9JI35), sequence (Q9JI35 whole entry): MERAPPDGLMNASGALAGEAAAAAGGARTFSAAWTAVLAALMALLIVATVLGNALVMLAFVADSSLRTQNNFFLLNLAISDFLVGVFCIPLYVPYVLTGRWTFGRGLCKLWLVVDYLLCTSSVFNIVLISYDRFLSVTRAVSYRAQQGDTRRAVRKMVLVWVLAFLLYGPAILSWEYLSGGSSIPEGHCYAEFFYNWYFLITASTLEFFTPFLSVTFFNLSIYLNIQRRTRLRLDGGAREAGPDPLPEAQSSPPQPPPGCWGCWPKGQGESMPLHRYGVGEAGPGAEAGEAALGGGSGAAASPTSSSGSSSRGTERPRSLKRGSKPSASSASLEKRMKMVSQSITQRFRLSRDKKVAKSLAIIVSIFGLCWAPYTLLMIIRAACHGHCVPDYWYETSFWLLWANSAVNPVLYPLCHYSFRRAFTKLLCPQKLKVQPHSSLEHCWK

Broadly, the Kd is the concentration at which binding is half-saturated. One may read the Emax as the maximal effect, on the per cent scale that the assay sets.

The structures appear in SMILES notation. Activity calls are given as the source filed them. The calls are words filed in the database; no cut-off is given here. Some results are limits rather than exact numbers.

Consider `NC(=NCc1ccc(Cl)cc1)SCCCc1cnc[nH]1` [CLOBENPROPIT], for which the Activity entry in the data set on Rattus norvegicus [1] and in the data set with Rattus norvegicus [2] was “Non-toxic” in each case.
For the compound `C/N=C(\S)NCCc1c[nH]cn1`, the ED50 with Rattus norvegicus [3] and in the data set on Rattus norvegicus [4] was 85 nmol throughout.
As for `S=C(NCCCCc1c[nH]cn1)NC1CCCCC1`, the ED50 in the data set with Rattus norvegicus [3] and in the data set with Rattus norvegicus [4] was 285 nmol each time.
In the case of `CNC(=S)NCCCCc1cnc[nH]1` [BURIMAMIDE], the Activity result in the data set on Rattus norvegicus [1] and with Rattus norvegicus [2] was “Non-toxic” each time. Also, the Kd at Histamine H3 receptor [5] was determined as 0.1 µM; on Histamine H2 receptor, 7.8 µM.
For the compound `C/N=C(\S)NCCCc1c[nH]cn1` [NORBURIMAMIDE], the ED50 in the data set with Rattus norvegicus [3] and in the data set with Rattus norvegicus [4] was 217 nmol throughout.
For `O=C(NCCCCc1c[nH]cn1)Nc1ccccc1`, the ED50 in the data set with Rattus norvegicus [3] and with Rattus norvegicus [4] was 65 nmol in each case.
As for `CNC(=S)NCCSCc1[nH]cnc1C` [METIAMIDE], the ED50 in the data set on Rattus norvegicus [3] and in the data set with Rattus norvegicus [4] was 370 nmol in each case.
With `CN/C(=N\C#N)NCCSCc1ccc(CN(C)C)o1`, the outcome in the data set with Rattus norvegicus [6] and with Rattus norvegicus [7] was inactive. Further, the Activity entry with Rattus norvegicus [3] was “Dose-dependent effect”; in the data set on Rattus norvegicus [8] it was “Non-toxic”; in the data set on Rattus norvegicus [9] it was “tde”; in the data set with Rattus norvegicus [4], “Dose-dependent effect”; in the data set with Rattus norvegicus [10], “Non-toxic”; in the data set on Rattus norvegicus [11], “tde”. In addition, the ED50 in the data set on Rattus norvegicus [3] and in the data set on Rattus norvegicus [4] was 67 nmol throughout.
For the compound `CNC(=S)N1CCC(c2c[nH]cn2)CC1`, the ED50 with Rattus norvegicus [3] and in the data set on Rattus norvegicus [4] was 201 nmol in each case.
Turning to `C/N=C(/NC#N)NCCSCc1csc(NC(=N)N)n1` [TIOTIDINE], the ED50 in the data set on Rattus norvegicus [3] and in the data set on Rattus norvegicus [4] was over 320 nmol in each case.
Turning to `CN/C(=C\[N+](=O)[O-])NCCCCc1c[nH]cn1`, the ED50 in the data set on Rattus norvegicus [3] and in the data set with Rattus norvegicus [4] was 104 nmol each time.
On to `S=C(NCCCCc1c[nH]cn1)NCc1ccccc1`, for which the ED50 in the data set with Rattus norvegicus [3] and with Rattus norvegicus [4] was 105 nmol each time.
With `S=C(NC1CCCCC1)N1CCC(c2cnc[nH]2)CC1` [THIOPERAMIDE], the ED50 with Rattus norvegicus [3] and with Rattus norvegicus [4] was over 342 nmol each time.
As to `C/N=C(\S)NCCCCCCc1c[nH]cn1`, the ED50 with Rattus norvegicus [3] and in the data set on Rattus norvegicus [4] was 87 nmol each time.
Regarding `c1ccc(NCCCOc2cccc(CN3CCCCC3)c2)cc1` [SKF95299], the ED50 in the data set on Rattus norvegicus [3] and in the data set with Rattus norvegicus [4] was over 308 nmol each time.
Regarding `S=C(NCCCCc1c[nH]cn1)Nc1ccccc1`, the ED50 in the data set on Rattus norvegicus [3] and in the data set with Rattus norvegicus [4] was 81 nmol each time.
With `CNC(=S)NCCSCc1ccc(CN(C)C)o1`, the Activity entry is “Non-toxic” with Rattus norvegicus [1], “Non-toxic” with Rattus norvegicus [2], “tde” in the data set on Rattus norvegicus [12] and “tde” in the data set with Rattus norvegicus [13]. For the same compound, the ED50 in the data set on Rattus norvegicus [3] and in the data set with Rattus norvegicus [4] was 117 nmol throughout.
As for `CNC(=C[N+](=O)[O-])NCCSCc1ccc(CN(C)C)o1` [RANITIDINE], the ED50 in the data set with Rattus norvegicus [3] and in the data set with Rattus norvegicus [4] was 109 nmol throughout.
As for `S=C(Nc1ccccc1)N1CCC(c2c[nH]cn2)CC1`, the Emax with Rattus norvegicus [3] and in the data set on Rattus norvegicus [4] was under 100% throughout.
Consider `CN/C(=N\CCSCc1nc[nH]c1C)NC#N` [CIMETIDINE], for which the Activity entry in the data set with Rattus norvegicus [3] was “Dose-dependent effect”; in the data set with Rattus norvegicus [12], “tde”; in the data set with Rattus norvegicus [4] it was “Dose-dependent effect”; with Rattus norvegicus [13] it was “tde”. In addition, the ED50 in the data set with Rattus norvegicus [3] and in the data set on Rattus norvegicus [4] was 464 nmol throughout.
Regarding `C/N=C(\S)NCCCCc1c[nH]cn1` [BURIMAMIDE], the Activity entry was “Dose-dependent effect” with Rattus norvegicus [3], “tde” in the data set on Rattus norvegicus [12], “Dose-dependent effect” in the data set with Rattus norvegicus [4] and “tde” in the data set with Rattus norvegicus [13]. The ED50 in the data set with Rattus norvegicus [3] and in the data set on Rattus norvegicus [4] was 184 nmol each time.
Turning to `CN/C(=N\C#N)NCCSCc1ccccc1`, the ED50 with Rattus norvegicus [3] and with Rattus norvegicus [4] was over 403 nmol throughout.
For `c1cc(CN2CCCCC2)cc(OCCCNc2nc3ccccc3s2)c1` [ZOLANTIDINE], the ED50 with Rattus norvegicus [3] and in the data set on Rattus norvegicus [4] was over 262 nmol throughout.
Consider `S=C(NCCc1c[nH]cn1)Nc1ccccc1`, for which the ED50 with Rattus norvegicus [3] and in the data set on Rattus norvegicus [4] was 89 nmol each time.
Regarding `S=C(NCCCCc1c[nH]cn1)NCCc1ccccc1`, the ED50 in the data set on Rattus norvegicus [3] and in the data set with Rattus norvegicus [4] was 80 nmol in each case.
Turning to `CN/C(=C/[N+](=O)[O-])NCCCn1ccnc1`, the Activity result in the data set with Rattus norvegicus [1] and in the data set on Rattus norvegicus [2] was “Non-toxic” each time.
For `CN/C(=N/CCSCc1nc[nH]c1C)NC#N` [CIMETIDINE], the Activity entry in the data set with Rattus norvegicus [1] and in the data set on Rattus norvegicus [2] was “Non-toxic” in each case.
`CN/C(=N\C#N)NCCSCc1ccccn1`: the ED50 with Rattus norvegicus [3] and in the data set with Rattus norvegicus [4] was over 602 nmol throughout.
With `CN/C(=N\C#N)NCCCc1c[nH]cn1` [IMPROGAN], the affinity on Histamine H3 receptor [14], expressed as Kd, was 5 µM. The Activity entry with Rattus norvegicus [1] was “Non-toxic”; in the data set with Rattus norvegicus [2], “Non-toxic”; in the data set on Rattus norvegicus [3], “Dose-dependent effect”; in the data set on Rattus norvegicus [12], “tde”; in the data set with Rattus norvegicus [4], “Dose-dependent effect”; with Rattus norvegicus [13], “tde”. The ED50 in the data set on Rattus norvegicus [3] and with Rattus norvegicus [4] was 330 nmol in each case.
In the case of `C/N=C(\S)NCCCn1ccnc1`, the ED50 in the data set with Rattus norvegicus [3] and in the data set on Rattus norvegicus [4] was over 504 nmol in each case.
In the case of `S=C(NCCCCCCc1c[nH]cn1)Nc1ccccc1`, the maximal response (Emax) with Rattus norvegicus [3] and in the data set on Rattus norvegicus [4] was under 100% in each case.

The values above are taken from ChEMBL document CHEMBL3044998, “Improgan-like Analgesics: A Family of Compounds Derived From Histamine Anatgonists” (Med Chem Res, 2004).
